{
  "source": "ChEMBL document CHEMBL3879906",
  "about": "(2013)",
  "key": {"Cardiac muscle cell [1]": {"tested_on": "Cardiac muscle cell", "test": "Increase in reverse rate-dependent action potential duration at 90% repolarization in human atrial myocytes at 0.5 to 2 Hz at 50 uM by whole cell patch clamp method", "assay_type": "functional, cell-based"}, "Cardiac muscle cell [2]": {"tested_on": "Cardiac muscle cell", "test": "Increase in reverse rate-dependent action potential duration at 75% repolarization in human atrial myocytes at 0.5 to 2 Hz at 50 uM by whole cell patch clamp method", "assay_type": "functional, cell-based"}, "Cardiac muscle cell [3]": {"tested_on": "Cardiac muscle cell", "test": "Increase in reverse rate-dependent action potential duration at 50% repolarization in human atrial myocytes at 0.5 to 2 Hz at 50 uM by whole cell patch clamp method", "assay_type": "functional, cell-based"}, "Canis familiaris [4]": {"tested_on": "Canis familiaris", "test": "Induction of QTc interval prolongation in anesthetized dog at 5 mg/kg administered intraduodenally after 1 to 4 hrs", "assay_type": "organism-based, Canis lupus familiaris", "conditions": "in vivo, other"}, "Canis familiaris [5]": {"tested_on": "Canis familiaris", "test": "Anti-atrial fibrillation activity in bilateral vagal stimulated anesthetized dog assessed as time duration of atrial fibrillation at 100 ms of basic cycle length at 5 mg/kg administered intraduodenally measured after 2 hrs", "assay_type": "functional, Canis lupus familiaris"}, "Mus musculus [6]": {"tested_on": "Mus musculus", "test": "Acute toxicity in Kunming mouse assessed as mortality at 0.3 g/kg, po administered every 1.5 hrs for 3 times measured for 2 weeks relative to vehicle-treated control", "assay_type": "organism-based", "conditions": "in vivo, 300 mg/kg, 336 h"}, "Cavia porcellus": {"species": "Cavia porcellus", "test": "Inhibition of acetylcholine-activated potassium channel in guinea pig atrial myocytes assessed as reversal of carbachol-induced membrane conductance at 3 uM by whole cell patch clamp method", "assay_type": "cell-based"}, "[7]": {"target": "Potassium voltage-gated channel subfamily A member 5 (Homo sapiens) (UniProt P22460)", "sequence (P22460 whole entry)": "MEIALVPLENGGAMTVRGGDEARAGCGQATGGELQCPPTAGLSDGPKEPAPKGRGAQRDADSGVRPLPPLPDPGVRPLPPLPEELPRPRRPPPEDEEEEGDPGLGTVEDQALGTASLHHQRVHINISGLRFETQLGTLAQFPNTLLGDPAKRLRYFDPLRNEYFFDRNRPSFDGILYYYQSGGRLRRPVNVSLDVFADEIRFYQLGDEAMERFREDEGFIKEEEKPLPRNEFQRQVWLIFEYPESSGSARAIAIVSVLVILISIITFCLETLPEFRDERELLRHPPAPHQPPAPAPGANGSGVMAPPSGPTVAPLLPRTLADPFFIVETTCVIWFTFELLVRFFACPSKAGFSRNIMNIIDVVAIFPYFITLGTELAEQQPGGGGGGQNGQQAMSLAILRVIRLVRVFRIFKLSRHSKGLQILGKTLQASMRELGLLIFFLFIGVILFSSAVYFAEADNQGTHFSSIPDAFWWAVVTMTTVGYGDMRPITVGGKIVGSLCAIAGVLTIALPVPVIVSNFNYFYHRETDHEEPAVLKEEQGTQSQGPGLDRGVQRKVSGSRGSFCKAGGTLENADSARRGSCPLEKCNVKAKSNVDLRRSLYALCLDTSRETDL", "test": "Inhibition of Kv1.5 in human atrial myocytes assessed as decrease in ultra rapidly activating delayed rectifier potassium current amplitude at 40 mV by whole cell patch clamp method", "assay_type": "cell-based"}, "[8]": {"target": "T1, Voltage-gated potassium channel, IKs; KCNQ1(Kv7.1)/KCNE1(MinK) (Homo sapiens, UniProt P51787+P15382)", "T1 sequence (P51787 whole entry)": "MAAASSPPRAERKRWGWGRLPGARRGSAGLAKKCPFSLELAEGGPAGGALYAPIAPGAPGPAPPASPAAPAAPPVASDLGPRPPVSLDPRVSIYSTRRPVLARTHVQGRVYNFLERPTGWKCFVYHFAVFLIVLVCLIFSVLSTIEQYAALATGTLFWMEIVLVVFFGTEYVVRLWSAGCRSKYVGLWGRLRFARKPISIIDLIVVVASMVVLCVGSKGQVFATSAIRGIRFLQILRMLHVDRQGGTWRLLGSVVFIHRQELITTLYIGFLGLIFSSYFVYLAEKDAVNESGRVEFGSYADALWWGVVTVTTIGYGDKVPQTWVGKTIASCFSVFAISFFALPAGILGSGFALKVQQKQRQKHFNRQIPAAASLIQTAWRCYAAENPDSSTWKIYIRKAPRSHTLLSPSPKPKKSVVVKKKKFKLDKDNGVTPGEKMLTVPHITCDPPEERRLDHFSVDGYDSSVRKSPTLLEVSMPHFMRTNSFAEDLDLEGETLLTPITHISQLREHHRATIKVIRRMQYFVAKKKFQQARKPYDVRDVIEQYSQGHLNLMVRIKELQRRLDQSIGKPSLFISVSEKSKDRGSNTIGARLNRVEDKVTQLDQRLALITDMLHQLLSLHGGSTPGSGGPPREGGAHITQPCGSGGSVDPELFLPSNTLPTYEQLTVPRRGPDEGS", "test": "Inhibition of human KCNQ1/KCNE1 expressed in HEK293 cells assessed as decrease in current amplitude at +20 to +60 mV by whole cell patch clamp method", "assay_type": "cell-based"}, "Cardiac muscle cell [9]": {"tested_on": "Cardiac muscle cell", "test": "Increase in action potential duration at 75% repolarization in human atrial myocytes at 0.5 to 2 Hz at 10 uM by whole cell patch clamp method", "assay_type": "functional, cell-based"}, "[10]": {"target": "Potassium voltage-gated channel subfamily A member 5 (Homo sapiens) (UniProt P22460)", "test": "Inhibition of Kv1.5 in human atrial myocytes assessed as decrease in ultra rapidly activating delayed rectifier potassium tail and step current amplitude at 3 to 30 uM by whole cell patch clamp method", "assay_type": "cell-based"}, "[11]": {"target": "Voltage-gated inwardly rectifying potassium channel KCNH2 (Homo sapiens, UniProt Q12809)", "sequence (Q12809 whole entry)": "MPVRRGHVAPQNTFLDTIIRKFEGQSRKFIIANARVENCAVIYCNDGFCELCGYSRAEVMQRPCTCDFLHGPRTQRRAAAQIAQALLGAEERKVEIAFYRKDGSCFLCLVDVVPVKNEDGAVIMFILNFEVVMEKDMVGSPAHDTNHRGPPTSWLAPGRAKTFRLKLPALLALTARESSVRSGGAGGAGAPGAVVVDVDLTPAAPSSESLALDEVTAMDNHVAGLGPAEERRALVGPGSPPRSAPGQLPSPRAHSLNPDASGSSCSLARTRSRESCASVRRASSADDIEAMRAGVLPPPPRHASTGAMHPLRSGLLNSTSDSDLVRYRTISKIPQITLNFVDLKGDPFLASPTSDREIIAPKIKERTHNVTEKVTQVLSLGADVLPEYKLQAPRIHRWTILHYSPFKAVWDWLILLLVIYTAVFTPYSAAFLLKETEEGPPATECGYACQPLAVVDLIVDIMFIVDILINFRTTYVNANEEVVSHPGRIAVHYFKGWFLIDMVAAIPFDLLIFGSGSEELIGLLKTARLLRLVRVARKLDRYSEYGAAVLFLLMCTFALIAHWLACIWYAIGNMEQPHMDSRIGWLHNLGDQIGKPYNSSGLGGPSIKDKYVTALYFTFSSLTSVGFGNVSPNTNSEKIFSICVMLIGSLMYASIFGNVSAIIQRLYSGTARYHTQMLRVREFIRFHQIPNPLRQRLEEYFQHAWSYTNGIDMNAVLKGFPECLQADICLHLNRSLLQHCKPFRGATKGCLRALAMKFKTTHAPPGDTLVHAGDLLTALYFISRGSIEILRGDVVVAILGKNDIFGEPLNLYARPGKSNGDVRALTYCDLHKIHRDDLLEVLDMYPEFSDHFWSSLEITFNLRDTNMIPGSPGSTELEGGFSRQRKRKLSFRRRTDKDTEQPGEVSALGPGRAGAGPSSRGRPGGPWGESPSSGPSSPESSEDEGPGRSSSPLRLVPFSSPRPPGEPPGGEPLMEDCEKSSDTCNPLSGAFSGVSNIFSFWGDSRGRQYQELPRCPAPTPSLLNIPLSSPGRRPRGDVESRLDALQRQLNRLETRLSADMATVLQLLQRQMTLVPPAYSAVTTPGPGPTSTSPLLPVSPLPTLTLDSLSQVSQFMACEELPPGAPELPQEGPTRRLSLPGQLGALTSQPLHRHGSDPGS", "test": "Inhibition of human ERG expressed in HEK293 cells assessed as decrease in current amplitude at 30 uM by whole cell patch clamp method", "assay_type": "cell-based", "conditions": "hek293, 30 µM"}, "Mus musculus [12]": {"tested_on": "Mus musculus", "test": "Acute toxicity in Kunming mouse assessed as abnormal activity at 0.3 g/kg, po administered every 1.5 hrs for 3 times measured for 2 weeks relative to vehicle-treated control", "assay_type": "organism-based", "conditions": "in vivo, 300 mg/kg, 336 h"}, "Canis familiaris [13]": {"tested_on": "Canis familiaris", "test": "Anti-atrial fibrillation activity in anesthetized dog assessed as prolongation of effective refractory time period of left atrium at 200 to 250 ms of basic cycle length at 5 mg/kg administered intraduodenally measured after 1 to 4 hrs relative to vehicle-treated control", "assay_type": "functional, Canis lupus familiaris"}, "Cardiac muscle cell [14]": {"tested_on": "Cardiac muscle cell", "test": "Increase in action potential duration at 50% repolarization in human atrial myocytes at 0.5 to 2 Hz at 10 uM by whole cell patch clamp method", "assay_type": "functional, cell-based"}, "Canis familiaris [15]": {"tested_on": "Canis familiaris", "test": "Anti-atrial fibrillation activity in bilateral vagal stimulated anesthetized dog assessed as time duration of atrial fibrillation at 100 ms of basic cycle length at 10 mg/kg administered intraduodenally", "assay_type": "functional, Canis lupus familiaris"}, "Cardiac muscle cell [16]": {"tested_on": "Cardiac muscle cell", "test": "Increase in action potential duration at 90% repolarization in human atrial myocytes at 0.5 to 2 Hz at 10 uM by whole cell patch clamp method", "assay_type": "functional, cell-based"}, "[17]": {"target": "T1, Voltage-gated potassium channel, IKs; KCNQ1(Kv7.1)/KCNE1(MinK)", "test": "Inhibition of human KCNQ1/KCNE1 expressed in HEK293 cells assessed as decrease in current amplitude at 30 uM by whole cell patch clamp method", "assay_type": "cell-based", "conditions": "hek293, 30 µM"}, "Heart [18]": {"tested_on": "Heart", "test": "Effect on heart rate in New Zealand white rabbit heart under hypokalemic conditions at 30 uM by electrocardiogram (reference value: 157 to 175 /min)", "assay_type": "ADME, tissue-based, Oryctolagus cuniculus"}, "[19]": {"target": "T2, A-type voltage-gated potassium channel KCND3 (Homo sapiens, UniProt Q9UK17)", "T2 sequence (Q9UK17 whole entry)": "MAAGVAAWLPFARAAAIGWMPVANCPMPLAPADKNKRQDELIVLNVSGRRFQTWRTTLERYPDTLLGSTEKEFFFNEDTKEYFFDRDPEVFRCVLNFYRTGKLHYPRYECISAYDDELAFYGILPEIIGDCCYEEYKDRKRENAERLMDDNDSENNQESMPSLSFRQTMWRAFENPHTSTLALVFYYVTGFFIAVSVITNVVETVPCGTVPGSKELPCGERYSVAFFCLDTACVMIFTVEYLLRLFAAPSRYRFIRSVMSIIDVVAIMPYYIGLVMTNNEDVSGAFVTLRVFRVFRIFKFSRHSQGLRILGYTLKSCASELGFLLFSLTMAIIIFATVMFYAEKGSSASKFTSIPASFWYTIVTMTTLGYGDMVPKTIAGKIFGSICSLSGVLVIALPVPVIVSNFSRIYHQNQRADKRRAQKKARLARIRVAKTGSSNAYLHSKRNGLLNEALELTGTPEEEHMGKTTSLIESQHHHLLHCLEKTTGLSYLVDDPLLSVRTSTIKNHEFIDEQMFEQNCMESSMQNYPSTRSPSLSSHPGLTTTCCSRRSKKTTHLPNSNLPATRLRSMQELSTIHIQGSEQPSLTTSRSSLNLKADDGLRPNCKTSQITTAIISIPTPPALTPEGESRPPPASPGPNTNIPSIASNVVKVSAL", "test": "Inhibition of Kv4.3 in human atrial myocytes assessed as recovery time constant of transient outward potassium current amplitude at 10 uM by whole cell patch clamp method (reference value: 102 +/- 12 ms)", "assay_type": "cell-based"}, "[20]": {"test": "Effect on amplitude of action potential in human atrial myocytes at 5 to 10 uM by whole cell patch clamp method", "assay_type": "cell-based", "conditions": "cardiac muscle cell"}, "[21]": {"target": "T1, Voltage-gated potassium channel, IKs; KCNQ1(Kv7.1)/KCNE1(MinK)", "test": "Inhibition of human KCNQ1/KCNE1 expressed in HEK293 cells assessed as recovery of current amplitude at 30 uM measured after compound washout by whole cell patch clamp method", "assay_type": "cell-based", "design": "scale not given: the % may be the effect or the level left", "conditions": "hek293, 30 µM"}, "[22]": {"test": "Effect on resting membrane potential in human atrial myocytes at 5 to 10 uM by whole cell patch clamp method", "assay_type": "cell-based", "conditions": "cardiac muscle cell"}, "[23]": {"target": "Potassium voltage-gated channel subfamily A member 5 (Homo sapiens) (UniProt P22460)", "test": "Inhibition of Kv1.5 in human atrial myocytes assessed as decrease in ultra rapidly activating delayed rectifier potassium current amplitude at 3 uM after 8 mins by whole cell patch clamp method", "assay_type": "cell-based"}, "Heart [24]": {"tested_on": "Heart", "test": "Effect on QTc interval in New Zealand white rabbit heart under hypokalemic conditions at 30 uM by electrocardiogram (reference value: 304.5 to 340.1 ms)", "assay_type": "ADME, Oryctolagus cuniculus"}, "[25]": {"target": "T2, A-type voltage-gated potassium channel KCND3", "test": "Inhibition of Kv4.3 in human atrial myocytes assessed as decrease in transient outward potassium current amplitude at 3 to 10 uM by whole cell patch clamp method", "assay_type": "cell-based"}, "Cardiac muscle cell [26]": {"tested_on": "Cardiac muscle cell", "test": "Prolongation of action potential duration in human atrial myocytes at 2 Hz at 5 to 10 uM by whole cell patch clamp method", "assay_type": "functional, cell-based"}},
  "note": "The source made the active and inactive calls. No cut-off for these calls is given here.",
  "data": [
    {"smiles": "Nc1ccncc1", "values": [
      {"measurement": "Activity", "setting": "Cardiac muscle cell [1]", "result": "Active"},
      {"measurement": "Activity", "setting": "Cardiac muscle cell [2]", "result": "Active"},
      {"measurement": "Activity", "setting": "Cardiac muscle cell [3]", "result": "Active"}
    ]},
    {"smiles": "CC(C)NCC(O)c1ccc(NS(C)(=O)=O)cc1", "note": "(centres undefined) [SOTALOL]", "values": [
      {"measurement": "Activity", "setting": "Canis familiaris [4]", "result": "Toxic"},
      {"measurement": "Time", "setting": "Canis familiaris [5]", "result": 8.5, "unit": "min"}
    ]},
    {"smiles": "COc1ccc(-c2cc(=O)c3c(O)cc(O)cc3o2)cc1", "note": "[ACACETIN]", "values": [
      {"measurement": "Activity", "setting": "Mus musculus [6]", "result": "Non-Toxic"},
      {"measurement": "inhibition", "setting": "Cavia porcellus", "result": "Active"},
      {"measurement": "inhibition", "setting": "[7]", "result": "Dose-dependent effect"},
      {"measurement": "inhibition (INH)", "setting": "[8]", "result": "Dose-dependent effect"},
      {"measurement": "Activity", "setting": "Cardiac muscle cell [9]", "result": "Active"},
      {"measurement": "inhibition", "setting": "[10]", "result": "Active"},
      {"measurement": "inhibition (INH)", "setting": "[11]", "result": "Active"},
      {"measurement": "Activity", "setting": "Mus musculus [12]", "result": "Non-Toxic"},
      {"measurement": "Activity", "setting": "Canis familiaris [13]", "result": "10 - 25%"},
      {"measurement": "Activity", "setting": "Canis familiaris [4]", "result": "Non-Toxic"},
      {"measurement": "Activity", "setting": "Cardiac muscle cell [14]", "result": "Active"},
      {"measurement": "Time", "setting": "Canis familiaris [15]", "result": "4.3 to 7.11", "unit": "min"},
      {"measurement": "Activity", "setting": "Cardiac muscle cell [16]", "result": "Active"},
      {"measurement": "inhibition (INH)", "setting": "[17]", "result": "Active"},
      {"measurement": "Activity", "setting": "Heart [18]", "result": 156, "unit": "bpm"},
      {"measurement": "Time", "setting": "[19]", "result": 136, "unit": "ms"},
      {"measurement": "Activity", "setting": "[20]", "result": "Non-Toxic"},
      {"measurement": "Activity", "setting": "[21]", "result": 83, "unit": "%"},
      {"measurement": "Activity", "setting": "[22]", "result": "Non-Toxic"},
      {"measurement": "inhibition", "setting": "[23]", "result": "Active"},
      {"measurement": "Time", "setting": "Heart [24]", "result": 308.7, "unit": "ms"},
      {"measurement": "inhibition (INH)", "setting": "[25]", "result": "Active"},
      {"measurement": "Time", "setting": "Canis familiaris [5]", "result": "5.31 to 6.12", "unit": "min"},
      {"measurement": "Activity", "setting": "Cardiac muscle cell [26]", "result": "Active"}
    ]}
  ]
}
